Reference: US20140011811A1, “MYOSIN BINDING PROTEIN-C FOR USE IN METHODS RELATING TO DIASTOLIC HEART FAILURE” (The United States Government as represented by the …, priority 2011, published 2014)

What was measured:
DOCA-salt mice = assay: Echocardiography (mitral pulse wave Doppler flow and tissue Doppler imaging) in DOCA-salt mouse model of diastolic dysfunction; format: in vivo; conditions: DOCA-salt+BH4 mice, BH4 supplemental diet 5 mg BH4/day, postoperative day 11 to 18, echocardiography day 18
Description: Previously, we have shown that the DOCA-salt mouse model leads to mild hypertension, NOS uncoupling, myocardial oxidative stress, and diastolic dysfunction. A gradual and mild elevation in blood pressure was induced by unilateral nephrectomy, subcutaneous implantation of a controlled release deoxycorticosterone acetate (DOCA) pellet (0.7 mg/d; Innovative Research of America, Sarasota, Fla.), and substituting drinking water with 1.05% saline. Control animals underwent a sham operation, had placebo pellet implantation, and received water without salt.
Mice were divided into two groups which received a control diet (sham N=7; DOCA-salt N=10) and two groups which received a BH4 supplemental diet of 5 mg BH4/day (Research Diets Inc, New Brunswick, N.J.; sham+BH4 N=8; DOCA-salt+BH4 N=8). The supplemental diet began on day 11 after surgery, and continued until day 18, when the mice were analyzed and sacrificed.
Ten days after surgery, we employed echocardiography to characterize the diastolic dysfunction. […] The images for each mouse were recorded for at least 5 s (30-40 cardiac cycles) from which three to five representative cycles with the highest quality imaging were selected. Percent fractional shortenin (% FS) were calculated as 100×(LVEDd)-(LVESd)/(LVEDd) and percent LV ejection fraction (%EF) was calculated as 100×[(7/2.4+LVEDd)×LEDd^3]−[(7/2.4+LVESd)×LVESd^3]/[(7/2.4+LVEDd)×LEDd^3]. […]

[1] = system: myosin binding protein C (MyBP-C); assay: Western immunoblotting of S-glutathionylation of MyBP-C in cardiac myofilaments from treated DOCA-salt and sham mice; format: in vivo, mouse; conditions: chronic ranolazine diet (~1 g/day tablet with 5 mg ranolazine and 0.3 mg P450 inhibitor), postoperative day 11 to 18
Description: Chronic Administration of Ranolazine: A special diet contained 5 mg ranolazine, 0.3 mg P450 inhibitor, and 0.25 mg red food color was pressed into a 1-g nutritionally complete grain-based tablet (Harlan, Madison, Wis.). The control diet contained 0.3mg P450 inhibitor and 0.25 mg yellow food color pressed into the same type of 1-g tablets. DOCA-salt and sham mice consumed daily ˜1g of the special diet from postoperative day 11 to 18. Western blot analysis was used to detect for glutathionylated proteins. […] Using the protein concentration determined from an RC-DC (Bio-Rad) assay, 40 μg of total protein was applied to 1D 12% resolving SDS-PAGE gel and transferred onto a 0.2 μM Polyvinylidene fluoride (PVDF) membrane. […] Anti-glutathione mouse monoclonal primary antibody (Virogen, Watertown, Mass.) was used at 1:1000 dilution along with anti-mouse HRP-conjugated secondary antibody (Sigma) at 1:100,000 dilution to detect for S-glutathionylation.10 Optical density of the bands was measured with ImageQuant TL (GE Healthcare) and exported to Excel for further analysis. […] Using the protein concentration determined from an RC-DC (Bio-Rad) assay, 40 µg of total protein was applied to a 12% SDS-PAGE gel and transferred onto a 0.2 pm PVDF membrane. […] Optical density of the bands was measured with ImageQuant TL (GE Healthcare) and exported to Excel for further analysis. […]

MyBP-C = assay: Pro-Q Diamond gel stain of phosphorylation of MyBP-C in myofibrils from treated DOCA-salt and sham mice; format: in vivo, mouse; conditions: DOCA-salt or sham mice treated as in Examples 1 and 2
Description: DOCA-salt or sham mice were administered ranolazine or BH4 as essentially described in Examples 1 and 2, respectively. Pro-Q Diamond (Invitrogen) gel stain was used to detect changes in phosphorylation states of MyBP-C. Myofibrils were prepared from DOCA-salt and sham models of the mice hearts, and pellets were solubilized in a non-reducing 2× laemmli buffer (4% SDS, 20% glycerol, 0.004% bromophenol blue, and 0.125 M Tris HCl pH 6.8). 25 mM N-ethylmaleimide (NEM) was added to the standard rigor buffer with Triton X-100, the standard rigor wash buffer, and the 2× Laemmli buffer. An RC-DC assay (BioRad) was used to determine protein concentrations. Samples were diluted at 1:1 ratio in reducing sample buffer (8 M urea, 2 M thiourea, 0.05 M tris pH 6.8, 75 mM DTT, 3% SDS, and 0.05% bromophenol blue and approximately 10 μg of protein was loaded on to a 12% resolving 1D SDS-PAGE gel. The gels were stained and destained with Pro-Q Diamond according to the manufacturer's recommendations prior to the imaging with a Typhoon 9410 scanner (GE Healthcare). Coomassie R-250 staining was used to normalize protein load to both actin and the whole lane. Optical density of the proteins was determined using ImageQuant TL (GE Healthcare) software and results were exported to Excel for further analysis.

Row | SMILES | ratio of E′A′ (mitral tissue Doppler E′/A′) (DOCA-salt mice; vs. DOCA-salt 0.74±0.05, P<0.001) | E/E′ ratio, a measure of left atrial pressure (DOCA-salt mice; vs. DOCA-salt 43.7±2.7, P<0.01) | MyBP-C glutathionylation [1] | phosphorylation levels of MyBP-C (MyBP-C)
1 | C[C@H](O)[C@H](O)[C@H]1CNc2nc(N)[nH]c(=O)c2N1 [BH4, tetrahydrobiopterin] | 1.12±1.10 | 34.5±2.2 |  | 
2 | COc1ccccc1OCC(O)CN1CCN(CC(=O)Nc2c(C)cccc2C)CC1 (stereo not shown) [ranolazine] |  |  | regressed level | did not affect
